Measured values reported in patent US20240252463A1, “METHODS OF TREATING FIBROTIC PATHOLOGIES” (Mayo Foundation for Medical Education and Research, priority 2018, published 2024).
Where a name gives a salt, the structure may show the parent alone. Read-outs that look alike come from different tables or passages of the source. Where no end group is shown, it is not given here.

Assays:
Assay type in all cases: cell-based, human
YAP/TAZ [1] = test: YAP/TAZ nuclear localization in IMR-90 and other mesenchymal cells (cardiac, dermal fibroblasts, hepatic stellate cells); conditions: for YAP/TAZ nuclear localization: fibroblasts on stiff matrix (plastic), IMR-90 cells treated 2 hours (FIG. 2a); for YAP/TAZ nuclear localization in confluent fibroblasts, ligand alone: ET-1 100 nM, LPA 10 μM, 5-HT 1 μM, 2 hours (FIG. 2c)
Protocol: FIGS. 2A-2E Dopamine Receptor D1 agonism blocks YAP/TAZ nuclear localization. 2a. Selective agonists of dopamine receptor D1 with varying efficacy inhibit YAP/TAZ nuclear localization; this effect can be overcome by treatment with a DRD1 receptor antagonist (SCH 39166, 3 μM), (Dihydrexidine, 10 μM). IMR-90 cells treated 2 hours prior to fixation. N=4 (****p<0.0001 vs. 0.1% DMSO vehicle control). Scale bar represents 100 μm. 2b. Consistent with DRD1 expression, DHX inhibits YAP/TAZ only in fibroblasts (IPF-FBs) but not in epithelial (NHEpCs) or endothelial (NHMVECs) cells. N=4 (****p<0.0001 vs. 0.1% DMSO vehicle control) 2c. YAP/TAZ localization is induced through multiple ligands which stimulate receptors coupled to Galphαi/q/12, endothelin 1 (ET-1: 100 nM), lysophosphatidic acid (LPA: 10 μM), and serotonin (5-HT: 1 μM). In each case DHX treatment (10 μM) can reverse this effect on YAP/TAZ. IMR-90 cells plated densely onto plastic cell culture plates for 24 hours in media containing 0.1% FBS, treated for 2 hours prior to fixation. N=4 (****p<0.0001 vs. 0.1% DMSO vehicle control), (++++p<0.0001 vs. the respective stimulated agonist ET-1, LPA, or 5-HT). Scale bar represents 100 μm. 2d. cAMP measured in IPF patient-derived fibroblasts treated for 20 minutes with DHX (10 μM)+/−SCH 39166 (3 μM). N=3 (**p<0.01 vs. 0.1% DMSO vehicle control). 2e. Phosphorylation of YAP by Rho-kinase inhibitor Y27632 (20 μM), direct cAMP stimulator Forskolin (10 μM), or DHX (10 μM). IMR-90 cells cultured for 24 hours in media containing 0.1% FBS, treated 2 hours prior to fixation. N=3 (***p<0.001 vs. 0.1% DMSO vehicle control).
FIGS. 6A-6C DHX inhibits YAP/TAZ localization in fibroblasts from multiple tissues. 6a. Mesenchymal cells derived from lung (IMR-90 and IPF-FBs) hepatic stellate cells (HSC), human adult cardiac fibroblasts, (HACF) and human dermal fibroblasts (HDF) were plated densely (Confluent) or sparsely (Control and all remaining conditions) onto plastic cell culture plates for 24 hours in media containing 0.1% FBS, treated for 2 hours with Rho kinase inhibitor Y27632, adenylate cyclase activator forskolin and DHX. N=4, Cells that were positive for nuclear YAP/TAZ were quantified by automated image analysis. 6b. Time course for DHX inhibition of YAP/TAZ nuclear localization. IMR-90 cells, N=3 (***p<0.001 vs. 0.1% DMSO vehicle control). 6c. […] N=3.
(§1) ImmunofluorescenceMicroscopy: Cells were plated into 96 well plates (Corning 3603) in their specific growth media and allowed to attach (8 hours). Media was then exchanged for the indicated conditions for each experiment. Cells were fixed in 3.7% formalin (Sigma-Aldrich), permeabilized in 0.25% Triton X-100 (Sigma-Aldrich) and then blocked with 1% BSA for 1 h. Cells or tissue sections were incubated overnight with mouse monoclonal antibody against αSMA (Sigma-Aldrich F3777), and/or a rabbit monoclonal antibody against YAP/TAZ (Cell Signaling D24E4) diluted 1:200 in PBS with 1% BSA. Cells were then washed and exposed to flourescence-conjugated secondary antibodies (Invitrogen) diluted 1:1000 and DAPI (Thermo Fisher Scientific). Images were taken with a Cytation5 (BioTek) microscope. For scoring αSMA positive cells (FIG. 3b), an observer blinded to the treatment conditions counted αSMA-positive cells using a visual threshold for bright fibrous staining; a minimum of 200 cells was counted for each condition. YAP/TAZ localization was quantified (FIG. 2, 6, 8) using Gen5 (Biotek) software. Images were taken at 4× magnification of both DAPI and YAP/TAZ staining. […] Quantification of double positive (YAP/TAZ and αSMA) cells from lung tissue sections (FIG. 4d) was performed similarly; however separate thresholds were established for both YAP/TAZ and αSMA. A minimum of 4000 cells was quantified for each mouse.

αSMA = αSMA intensity (fibroblast activation) in IPF patient-derived lung fibroblasts + TGFβ; conditions: 1 μM + TGFβ, treated for 72 hours; for activity at 1 µM: Homo sapiens, SMA
Protocol: as §1

YAP/TAZ [2] = test: YAP/TAZ nuclear localization (immunofluorescence, automated imaging) in IPF patient-derived lung fibroblasts; conditions: 10 μM, treated 2 hours prior to fixation; for Nuclear localization (% of total cells) IPF-1: patient sample IPF-1; for Nuclear localization (% of total cells) IPF-2: patient sample IPF-2; for Nuclear localization (% of total cells) IPF-3: patient sample IPF-3; for Nuclear localization (% of total cells) IPF-4: patient sample IPF-4
Protocol: 27A. […] IPF patient-derived lung fibroblasts cells treated 2 hours prior to fixation with diverse dopaminergic agonists (10 μM). N=4 different patient samples. % nuclear localization of YAP/TAZ was determined using automated imaging software. Scale bar represents 100 μm. 27C. cAMP measured in IPF patient-derived fibroblasts treated for 20 minutes with DHX. N=3. 27E.
as §1

[3] = patient sample IPF-1, read-out: αSMA intensity (% of DMSO control) IPF-1
[4] = patient sample IPF-2, read-out: αSMA intensity (% of DMSO control) IPF-2
[5] = patient sample IPF-3, read-out: αSMA intensity (% of DMSO control) IPF-3
[6] = patient sample IPF-4, read-out: αSMA intensity (% of DMSO control) IPF-4

Compound	YAP/TAZ nuclear localization (YAP/TAZ [1])	activity at 1 µM (αSMA; [3])	activity at 1 µM (αSMA; [4])	activity at 1 µM (αSMA; [5])	activity at 1 µM (αSMA; [6])	Nuclear localization (% of total cells) IPF-1 (YAP/TAZ [2])	Nuclear localization (% of total cells) IPF-2 (YAP/TAZ [2])	Nuclear localization (% of total cells) IPF-3 (YAP/TAZ [2])	Nuclear localization (% of total cells) IPF-4 (YAP/TAZ [2])	αSMA intensity (% of DMSO control) IPF-1 (αSMA; patient sample IPF-1)	αSMA intensity (% of DMSO control) IPF-2 (αSMA; patient sample IPF-2)	αSMA intensity (% of DMSO control) IPF-3 (αSMA; patient sample IPF-3)	αSMA intensity (% of DMSO control) IPF-4 (αSMA; patient sample IPF-4)	potency of inhibition of YAP/TAZ nuclear localization, normal lung fibroblasts vs IPF-derived (YAP/TAZ [1]; FIG. 6c)	YAP/TAZ nuclear localization in confluent fibroblasts, ligand alone (YAP/TAZ [1])
Oc1ccc(C2CNCCc3c2cc(O)c(O)c3Cl)cc1 (centres unmarked) [Fenoldopam•HCl, Fenoldopam]	reduced nuclear localization of YAP/TAZ	77.3%	45.3%	69.4%	63.4%										
CNCCc1ccc(O)c(O)c1 [N-Methyldopamine•HCl, N-Methyldopamine]		43.2%	17.7%	29%	14.7%	43.16 % of total cells	46.73 % of total cells	60.11 % of total cells	70.44 % of total cells						
Cc1cccc(C(=O)NCN2CCN(c3ccccc3C#N)CC2)c1.O=C(O)/C=C\C(=O)O [PD 168077 maleate]						67.08 % of total cells	42.44 % of total cells	63.68 % of total cells	68.4 % of total cells	75.27 % of DMSO control	56.15 % of DMSO control	75.77 % of DMSO control	66.5 % of DMSO control		
CCCCC[C@H](O)/C=C/[C@H]1[C@H](O)CC(=O)[C@@H]1C/C=C\CCCC(=O)O [PGE2, Prostaglandin E2]														reduced potency	
Br.C=CCN1CCc2c(cc(O)c(O)c2Br)[C@@H](c2ccccc2)C1 [R(+)-6-BROMO-APB•HBr, R(+)-6-bromo-APB]						28.37 % of total cells	38 % of total cells	36 % of total cells	25.65 % of total cells	11.25 % of DMSO control	2.507 % of DMSO control	0.8506 % of DMSO control	22.82 % of DMSO control		
Br.CCCN1CCc2cc(O)cc3c2[C@H]1Cc1ccc(O)c(O)c1-3 [R(−)-2,10,11-Trihydroxy-N-propyl-noraporphine]						32.87 % of total cells	35.25 % of total cells	37.7 % of total cells	25.36 % of total cells	4.895 % of DMSO control	8.436 % of DMSO control	2.988 % of DMSO control	25.61 % of DMSO control		
COc1ccc2c(c1O)-c1cc(O)cc3c1[C@@H](C2)N(C)CC3.Cl [R(−)-2,11-dihydroxy-10-methoxyapomorphine]						85.18 % of total cells	74.67 % of total cells	80.73 % of total cells	80.45 % of total cells	91.84 % of DMSO control	92.8 % of DMSO control	81.85 % of DMSO control	85.61 % of DMSO control		
Oc1cc2c(c(Cl)c1O)CCNCC2c1ccccc1 (centres unmarked) [SKF-81297]	reduced nuclear localization of YAP/TAZ														
NCCc1c[nH]c2ccc(O)cc12 [serotonin]															enhance YAP/TAZ nuclear localization
(R)-(−)-Apomorphine [(R)-(−)-Apomorphine•HCl]						29.21 % of total cells	31.97 % of total cells	27.47 % of total cells	17.86 % of total cells	7.067 % of DMSO control	1.173 % of DMSO control	0.9618 % of DMSO control	33.67 % of DMSO control		
R(−)-2,10,11-Trihydroxyaporphine [R(−)-2,10,11-Trihydroxyaporphine•HBr]						13.71 % of total cells	22.15 % of total cells	24.15 % of total cells	17.75 % of total cells	2.888 % of DMSO control	1.698 % of DMSO control	7.646 % of DMSO control	15.9942 % of DMSO control		
R(−)-Propylnorapomorphine [R(−)-Propylnorapomorphine•HCl]						28.35 % of total cells	26.71 % of total cells	42.74 % of total cells	29.03 % of total cells	5.081 % of DMSO control	1.879 % of DMSO control	5.561 % of DMSO control	19.96 % of DMSO control		
endothelin-1: GPCR ligand implicated in promotion of fibrosis (CSCSSLMDKECVYFCHLDIIW; ends and bridges not checked; cysteine pairing not given here; UniProt P05305 53-73, looked up)															enhance YAP/TAZ nuclear localization
lysophosphatidic acid															enhance YAP/TAZ nuclear localization
